≈ marks a conversion by molar mass, not a printed value.
System: H. influenza Hi4 efflux pump KO
Test: Antibacterial activity assay (MIC), H. influenza Hi4
Assay type: cell-based

| Compound | MIC | MIC Hi4 efflux pump KO |
| --- | --- | --- |
| COCC[C@H]1OC(=O)[C@H](COC)[C@H]2C=C[C@H]3[C@H]4O[C@]2(/C(C)=C/[C@H]1C)[C@@H]3[C@H](O)[C@@H](COC)[C@H]4OC(=O)c1ccc[nH]1 [Compound 4, 17-Deoxy-8-O-1H-pyrrole-2′-carbonylbranimycin] | 16 µg/mL (≈ 28.6 µM) |  |
| COC[C@H]1[C@@H](O)[C@@H]2O[C@@]34/C(C)=C/[C@@H](C)[C@@H]([C@H](O)COC)OC(=O)[C@H](COC)[C@H]3CC[C@@H]2[C@H]4[C@@H]1O [Compound 15, 4,5-Dihydro-branimycin] | 64 µg/mL (≈ 132 µM) |  |
| COC[C@@H]1[C@@H](O)[C@@H]2[C@H]3C=C[C@@H]4[C@@H](COC)C(=O)O[C@H]([C@H](O)COC)[C@H](C)/C=C(\C)[C@@]24O[C@H]3[C@@H]1OC(=O)c1cc(Br)c(F)[nH]1 [Compound 37, 8-O-4-Bromo-5-Fluoro-1H-pyrrole-2′-carbonylbranimycin] | 16 µg/mL (≈ 23.8 µM) |  |
| COC[C@@H]1[C@@H](O)[C@@H]2[C@H]3CC[C@@H]4[C@@H](COC)C(=O)O[C@H]([C@H](O)COC)[C@H](C)/C=C(\C)[C@@]24O[C@H]3[C@@H]1OC(=O)c1ccc[nH]1 [Compound 16, 4,5-Dihydro-8-O-1H-pyrrole-2′-carbonylbranimycin] | 16 µg/mL (≈ 27.7 µM) |  |
| COC[C@@H]1[C@@H](O)[C@@H]2[C@H]3C=C[C@@H]4[C@@H](COC)C(=O)O[C@H]([C@H](O)COC)[C@H](C)/C=C(\C)[C@@]24O[C@H]3[C@@H]1OC(=O)c1ccc(C)[nH]1 [Compound 6, 8-O-5-Methyl-1H-pyrrole-2′-carbonylbranimycin] | 32 µg/mL (≈ 54.3 µM) |  |
| COCC(=NO)[C@H]1OC(=O)[C@H](COC)[C@H]2C=C[C@H]3[C@H]4O[C@]2(/C(C)=C/[C@H]1C)[C@@H]3[C@H](O)[C@@H](COC)[C@H]4OC(=O)c1cc(F)c[nH]1 [Compound 40, 18-Deoxy-18-oximino-8-O-4-Fluoro-1H-pyrrole-2′-carbonylbranimycin] | 2 µg/mL (≈ 3.3 µM) |  |
| COC[C@@H]1[C@@H](O)[C@@H]2[C@H]3C=C[C@@H]4[C@@H](COC)C(=O)O[C@H]([C@H](O)COC)[C@H](C)/C=C(\C)[C@@]24O[C@H]3[C@@H]1OC(=O)c1ccoc1C [Compound 11, 8-O-2-Methylfurane-3′-carbonylbranimycin] | 32 µg/mL (≈ 54.2 µM) |  |
| COCC(=NOC(C)=O)[C@H]1OC(=O)[C@H](COC)[C@H]2C=C[C@H]3[C@H]4O[C@]2(/C(C)=C/[C@H]1C)[C@@H]3[C@H](O)[C@@H](COC)[C@H]4OC(=O)c1ccc[nH]1 [Compound 29, 18-Acetylimino-18-deoxy-8-O-1H-pyrrole-2′-carbonylbranimycin] | 2 µg/mL (≈ 3.17 µM) |  |
| CO[C@H]1C[C@H]2C=C[C@H]3[C@H]4O[C@]2(/C(C)=C/[C@@H](C)[C@@H]([C@@H](C)O)OC1=O)[C@@H]3[C@H](O)[C@@H](C)[C@H]4OC(=O)c1ccc[nH]1 [Nargenicin A1, reference compound] | 0.5 µg/mL (≈ 0.97 µM) |  |
| COC[C@@H]1[C@@H](O)[C@@H]2[C@H]3C=C[C@@H]4[C@@H](COC)C(=O)O[C@H]([C@H](O)COC)[C@H](C)/C=C(\C)[C@@]24O[C@H]3[C@@H]1OC(=O)c1cc[nH]n1 [Compound 10, 8-O-1H-Pyrazole-3′-carbonylbranimycin] | 32 µg/mL (≈ 55.5 µM) |  |
| COC[C@@H](O)[C@H]1OC(=O)[C@H](COC)[C@H]2C=C[C@H]3[C@H]4O[C@]2(/C(C)=C/[C@H]1C)[C@@H]3[C@H](O)[C@@H](C)[C@H]4OC(=O)c1ccoc1 [Compound 7, 8-O-Furane-3′-carbonylbaleomycin] | 0.5 µg/mL (≈ 0.915 µM) |  |
| COC[C@@H](O)[C@H]1OC(=O)[C@H](COC)[C@H]2C=C[C@H]3[C@H]4O[C@]2(/C(C)=C/[C@H]1C)[C@@H]3[C@H](O)[C@@H](C)[C@H]4OC(=O)c1ccc[nH]1 [Compound 3, 8-O-1H-pyrrole-2′-carbonylbaleomycin] | 1 µg/mL (≈ 1.83 µM) |  |
| COC[C@@H](O)[C@H]1OC(=O)[C@H](COC)[C@H]2C=C[C@H]3[C@H]4O[C@]2(/C(C)=C/[C@H]1C)[C@@H]3[C@H](O)[C@@H](C)[C@H]4O [Compound 1, Baleomycin] | 2 µg/mL (≈ 4.42 µM) |  |
| COC[C@@H]1[C@@H](O)[C@@H]2[C@H]3C=C[C@@H]4[C@@H](COC)C(=O)O[C@H]([C@H](O)COC)[C@H](C)/C=C(\C)[C@@]24O[C@H]3[C@@H]1OC(=O)c1cc(C#N)c[nH]1 [Compound 26, 8-O-4-Cyano-1H-pyrrole-2′-carbonylbranimycin] | 8 µg/mL (≈ 13.3 µM) |  |
| COC[C@@H]1[C@@H](O)[C@@H]2[C@H]3C=C[C@@H]4[C@@H](COC)C(=O)O[C@H]([C@H](O)COC)[C@H](C)/C=C(\C)[C@@]24O[C@H]3[C@@H]1OC(=O)c1cc(Br)c(Br)[nH]1 [Compound 34, 8-O-4,5-Dibromo-1H-pyrrole-2′-carbonylbranimycin] | 8 µg/mL (≈ 10.9 µM) |  |
| 8-O-4-Bromo-5-Chloro-1H-pyrrole-2′-carbonylbranimycin [Compound 35] |  | 16 µg/mL |
| COC[C@@H]1[C@@H](O)[C@@H]2[C@H]3C=C[C@@H]4[C@@H](COC)C(=O)O[C@H]([C@H](O)COC)[C@H](C)/C=C(\C)[C@@]24O[C@H]3[C@@H]1OC(=O)c1cc(F)c[nH]1 [Compound 19, 8-O-4-Fluoro-1H-pyrrole-2′-carbonylbranimycin] | 0.25 µg/mL (≈ 0.421 µM) |  |
| COC[C@@H]1[C@@H](O)[C@@H]2[C@H]3C=C[C@@H]4[C@@H](COC)C(=O)O[C@H]([C@H](O)COC)[C@H](C)/C=C(\C)[C@@]24O[C@H]3[C@@H]1OC(=O)c1cc(C)c[nH]1 [Compound 12, 8-O-4-Methyl-1H-pyrrole-2′-carbonylbranimycin] | 4 µg/mL (≈ 6.78 µM) |  |

| Compound | MIC | MIC Hi4 efflux pump KO |
| --- | --- | --- |
| 8-O-5-Bromo-4-Chloro-1H-pyrrole-2′-carbonylbranimycin [Compound 33] |  | 16 µg/mL |
| COC[C@@H]1[C@@H](O)[C@@H]2[C@H]3C=C[C@@H]4[C@@H](COC)C(=O)O[C@H]([C@H](O)COC)[C@H](C)/C=C(\C)[C@@]24O[C@H]3[C@@H]1OC(=O)c1ccoc1 [Compound 5, 8-O-Furane-3′-carbonylbranimycin] | 8 µg/mL (≈ 13.9 µM) |  |
| COCC(=O)[C@H]1OC(=O)[C@H](COC)[C@H]2C=C[C@H]3[C@H]4O[C@]2(/C(C)=C/[C@H]1C)[C@@H]3[C@H](O)[C@@H](COC)[C@H]4OC(=O)c1ccc[nH]1 [Compound 20, 18-Deoxy-18-oxo-8-O-1H-pyrrole-2′-carbonylbranimycin] | 32 µg/mL (≈ 55.8 µM) |  |
| COC[C@@H]1[C@@H](O)[C@@H]2[C@H]3C=C[C@@H]4[C@@H](COC)C(=O)O[C@H]([C@H](O)COC)[C@H](C)/C=C(\C)[C@@]24O[C@H]3[C@@H]1OC(=O)c1cc(C)n[nH]1 [Compound 39, 8-O-5-Methyl-1H-Pyrazole-3′-carbonylbranimycin] | > 64 µg/mL |  |
| COC[C@@H](O)[C@H]1OC(=O)[C@H](COC)[C@H]2C=C[C@H]3[C@H]4O[C@]2(/C(C)=C/[C@H]1C)[C@@H]3[C@H](O)[C@@H](C)[C@H]4OC(=O)c1cc(Cl)c[nH]1 [Compound 30, 8-O-4-Chloro-1H-pyrrole-2′-carbonylbaleomycin] | 4 µg/mL (≈ 6.9 µM) |  |
| COC[C@@H](O)[C@H]1OC(=O)[C@H](COC)[C@H]2C=C[C@H]3[C@H]4O[C@]2(/C(C)=C/[C@H]1C)[C@@H]3[C@H](O)[C@@H](C)[C@H]4OC(=O)c1cc(F)c[nH]1 [Compound 23, 8-O-4-Fluoro-1H-pyrrole-2′-carbonylbaleomycin] | 0.5 µg/mL (≈ 0.887 µM) |  |
| COC[C@@H]1[C@@H](O)[C@@H]2[C@H]3C=C[C@@H]4[C@@H](COC)C(=O)O[C@H]([C@H](O)COC)[C@H](C)/C=C(\C)[C@@]24O[C@H]3[C@@H]1OC(=O)c1ccsc1 [Compound 9, 8-O-Thiophene-3′-carbonylbranimycin] | 16 µg/mL (≈ 27 µM) |  |
| COC[C@@H]1[C@@H](O)[C@@H]2[C@H]3C=C[C@@H]4[C@@H](COC)C(=O)O[C@H]([C@H](O)COC)[C@H](C)/C=C(\C)[C@@]24O[C@H]3[C@@H]1OC(=O)c1cc(Br)c[nH]1 [Compound 32, 8-O-4-Bromo-1H-pyrrole-2′-carbonylbranimycin] | 4 µg/mL (≈ 6.11 µM) |  |
| COC[C@@H]1[C@@H](O)[C@@H]2[C@H]3C=C[C@@H]4[C@@H](COC)C(=O)O[C@H]([C@H](O)COC)[C@H](C)/C=C(\C)[C@@]24O[C@H]3[C@@H]1OC(=O)c1cocn1 [Compound 8, 8-O-Oxazole-4′-carbonylbranimycin] | > 64 µg/mL |  |
| CO[C@H]1C[C@H]2C=C[C@H]3[C@H]4O[C@]2(/C(C)=C/[C@@H](C)[C@@H]([C@@H](C)O)OC1=O)[C@@H]3[C@H](O)[C@@H](C)[C@H]4O [Nodusmicin, reference compound] | 2 µg/mL (≈ 4.73 µM) |  |
| COC[C@@H]1[C@@H](O)[C@@H]2[C@H]3C=C[C@@H]4[C@@H](COC)C(=O)O[C@H]([C@H](O)COC)[C@H](C)/C=C(\C)[C@@]24O[C@H]3[C@@H]1OC(=O)c1ccon1 [Compound 13, 8-O-Isoxazole-3′-carbonylbranimycin] | 16 µg/mL (≈ 27.7 µM) |  |
| COC[C@@H]1[C@@H](O)[C@@H]2[C@H]3C=C[C@@H]4[C@@H](COC)C(=O)O[C@H]([C@@H](COC)OC)[C@H](C)/C=C(\C)[C@@]24O[C@H]3[C@@H]1OC(=O)c1ccc[nH]1 [Compound 18, 17-O-Methyl-8-O-1H-pyrrole-2′-carbonylbranimycin] | 4 µg/mL (≈ 6.78 µM) |  |
| COC[C@@H]1[C@@H](O)[C@@H]2[C@H]3C=C[C@@H]4[C@@H](COC)C(=O)O[C@H](C(C)(O)COC)[C@H](C)/C=C(\C)[C@@]24O[C@H]3[C@@H]1OC(=O)c1ccc[nH]1 (some centres unmarked) [Compound 24, 17-Methyl-8-O-1H-pyrrole-2′-carbonylbranimycin] | 8 µg/mL (≈ 13.6 µM) |  |
| COC[C@@H]1[C@@H](O)[C@@H]2[C@H]3C=C[C@@H]4[C@@H](COC)C(=O)O[C@H]([C@H](O)COC)[C@H](C)/C=C(\C)[C@@]24O[C@H]3[C@@H]1OC(=O)c1cnco1 [Compound 14, 8-O-Oxazole-5′ carbonylbranimycin] | 64 µg/mL (≈ 111 µM) |  |
| COCC[C@H]1OC(=O)[C@H](COC)[C@H]2C=C[C@H]3[C@H]4O[C@]2(/C(C)=C/[C@H]1C)[C@@H]3[C@H](O)[C@@H](COC)[C@H]4O [Compound 17, 17-Deoxybranimycin] | 8 µg/mL (≈ 17.1 µM) |  |
| COCC(=NO)[C@H]1OC(=O)[C@H](COC)[C@H]2C=C[C@H]3[C@H]4O[C@]2(/C(C)=C/[C@H]1C)[C@@H]3[C@H](O)[C@@H](COC)[C@H]4OC(=O)c1cc(Cl)c[nH]1 [Compound 41, 18-Deoxy-18-oximino-8-O-4-Chloro-1H-pyrrole-2′-carbonylbranimycin] | 8 µg/mL (≈ 12.8 µM) |  |
| COC[C@@H]1[C@@H](O)[C@@H]2[C@H]3C=C[C@@H]4C[C@H](O)C(=O)O[C@H]([C@H](O)COC)[C@H](C)/C=C(\C)[C@@]24O[C@H]3[C@@H]1OC(=O)c1ccc[nH]1 [Nargenicin B1, reference compound] | 8 µg/mL (≈ 14.2 µM) |  |
